Source: PubChem BioAssay AID179 (DTP/NCI, 2004)
Activity calls are given as the source filed them.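 How the source made its calls: active means compounds giving half or more protection of infected cells from virus-caused growth loss, again on retest; inactive means the rest.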

Test system: CEM cells HIV-1 protection, formazan growth assay
Test: NCI AIDS Antiviral Assay
Conditions: for IC50: measured here: growth of uninfected CEM cells
Method in brief: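 Human CEM cells, uninfected and HIV-1-infected, received five drug concentrations, and growth was read by soluble formazan assay. Compounds giving at least 50% protection were retested; reproducible 100% protection defined confirmed active.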

## CC(C)(C)C1=CC(=NC(=O)c2cc([N+](=O)[O-])cc([N+](=O)[O-])c2)C=C(C(C)(C)C)C1=O
  EC50: > 6.03 µM
  IC50: > 6.03 µM

## CSC1=Nc2ccccc2SC(c2ccccc2)C1c1ccccc1 (configuration not stated)
  EC50: > 49 µM
  IC50: 35.5 µM

## O=C1/C(=C/c2ccc([N+](=O)[O-])cc2)Oc2cc(O)ccc21
  EC50: > 200 µM
  IC50: 35.5 µM

## O=C(C=Nc1ccccc1C(=O)[O-])c1ccco1.O=C(C=Nc1ccccc1C(=O)[O-])c1ccco1.[Zn+2]
  EC50: > 1.38 µM
  IC50: > 1.38 µM

## CNC(=O)OCC1=CC(=O)C(OC)=CC1=O
  EC50: > 200 µM
  IC50: 10 µM

## C[C@]1(O)CC[C@H]2[C@@H]3CC[C@H]4C[C@H](O)[C@@H]5C[C@]4(CO5)[C@H]3CC[C@@]21C
  EC50: > 110 µM
  IC50: > 110 µM

## CCCCCCCCC1=C(OC)C(=O)c2c(C)ccnc2C1=O
  outcome: inactive

## O=C(O)c1cc2ccccc2[nH]c1=O
  outcome: inactive

## CC1C2Cc3ccc(O)cc3C1(C)CCN2C (configuration not stated)
  EC50: > 129 µM
  IC50: > 129 µM

## N#C/C(=C\NC(N)=S)c1nc2ccccc2s1
  outcome: inactive

## Cc1[nH]c(=O)c2oc3cc4ccccc4cc3c2c1C(=O)O
  EC50: > 200 µM
  IC50: > 200 µM

## CC(=O)O[C@@H]1C(=O)O[C@@H]2CO[C@H](c3ccccc3)O[C@H]12
  EC50: > 200 µM
  IC50: > 200 µM

## CCCCNC(=O)Nc1c(C(N)=O)c2n(c1C(=O)OCC)CCCCC2
  EC50: > 50.1 µM
  IC50: > 50.1 µM

## CCOC(OCC)(OCC)C(Br)CC (configuration not stated)
  EC50: > 933 µM
  IC50: > 933 µM

## NC1=NC(N)=N1
  EC50: > 2950 µM
  IC50: > 2950 µM

## COc1ccccc1NC(=O)C1=C(C)NC(C)=C(C(=O)Nc2ccccc2OC)C1c1ccco1
  outcome: inactive

## Nc1cc2c3c(c1)Oc1cc(N)cc4c1C3c1c(cc(N)cc1O4)O2
  EC50: > 30.9 µM
  IC50: 23.4 µM

## O=C1N[C@@H](Cc2ccccc2)C(=O)N2CCCC[C@H]12
  outcome: inactive

## Cc1ccc(-c2c3nc(c(-c4ccc(C)cc4)c4ccc([nH]4)c(-c4ccc(C)cc4)c4nc(c(-c5ccncc5)c5ccc2[nH]5)C=C4)C=C3)cc1.Cc1ccc(-c2c3nc(c(-c4ccc(C)cc4)c4ccc([nH]4)c(-c4ccc(C)cc4)c4nc(c(-c5ccncc5)c5ccc2[nH]5)C=C4)C=C3)cc1.Cc1ccc(-c2c3nc(c(-c4ccc(C)cc4)c4ccc([nH]4)c(-c4ccc(C)cc4)c4nc(c(-c5ccncc5)c5ccc2[nH]5)C=C4)C=C3)cc1.Cc1ccc(-c2c3nc(c(-c4ccc(C)cc4)c4ccc([nH]4)c(-c4ccc(C)cc4)c4nc(c(-c5ccncc5)c5ccc2[nH]5)C=C4)C=C3)cc1.O=S(=O)([O-])C(F)(F)F.[Pt]
  EC50: > 25.1 µM
  IC50: 14.1 µM

## Cc1nn(C(=O)Cc2ccccc2)c2c1C(c1ccc3ccccc3c1O)SC(N)=N2 (configuration not stated)
  EC50: > 200 µM
  IC50: 24 µM

## CC1=NC(=O)CC2=C1C(C)N(Cc1ccccc1)C2=O (configuration not stated)
  EC50: > 355 µM
  IC50: > 355 µM

## CCOC(=O)C(F)(F)C(=O)OCC
  EC50: > 200 µM
  IC50: > 200 µM

## CC1(C)CC[P+](CC[P+]2(c3ccccc3)CCC(C)(C)c3ccccc32)(c2ccccc2)c2ccccc21 (configuration not stated)
  EC50: > 407 µM
  IC50: 64.6 µM

## Cc1cc(C)c(C2CC(O)C(CO)O2)cc1C (configuration not stated)
  EC50: > 200 µM
  IC50: > 200 µM

## COC(=O)[C@@H]1C=CCN1S(=O)(=O)c1ccc(C)cc1
  outcome: inactive

## c1ccc(CSC(SCc2ccccc2)c2cccc3ccccc23)cc1
  EC50: 5.89 µM
  IC50: > 200 µM

## CC1(C)CN(CCC#N)C(c2ccc([N+](=O)[O-])cc2)O1 (configuration not stated)
  EC50: > 200 µM
  IC50: 102 µM

## COc1ccc(C2=C/C(=C/c3ccc(N(CCC#N)CCC#N)cc3)C(=O)O2)cc1
  EC50: > 13.2 µM
  IC50: > 13.2 µM

## C=CCC1([C@H](C)[C@@H](OC(C)=O)c2cc(OC)c(OC)c(OC)c2)C[C@@H](OC)CCC1=O (some centres not stated)
  EC50: > 115 µM
  IC50: 6.03 µM

## Cc1ccc(/C=C2\CCCCCC2=O)cc1
  EC50: > 200 µM
  IC50: 182 µM

## CCSc1c2ccccc2c(-c2nc(F)nc(F)n2)n1CCc1ccccc1
  EC50: > 13.2 µM
  IC50: > 13.2 µM

## NC(=S)N/N=c1\cc(C(=O)Nc2ccc([N+](=O)[O-])cc2[N+](=O)[O-])oc2ccccc12
  EC50: > 60.3 µM
  IC50: > 60.3 µM

## C(=C\c1ccccc1)/Cn1nc(-c2ccccc2)nc1-c1cnccn1
  EC50: 145 µM
  IC50: > 200 µM

## COC(=O)c1ccc(CCc2cc(O)ccc2O)cc1
  EC50: > 200 µM
  IC50: 4.9 µM

## CN(NC(=O)/C(=C\c1ccccc1Cl)NC(=O)c1ccccc1)c1cn[nH]c(=O)c1Cl
  EC50: > 100 µM
  IC50: 52.5 µM

## Cc1nnc2n1N=C(c1ccc(O)c(O)c1O)CS2
  EC50: > 200 µM
  IC50: 20.4 µM

## CC(=O)NNc1nc(C)c(C(/C=C/c2ccccc2O)=N/NC(=O)c2ccncc2)s1
  EC50: > 22.4 µM
  IC50: > 22.4 µM

## CC(C)(C)c1ccc(-c2nc3ccccc3c(=O)o2)cc1
  EC50: > 200 µM
  IC50: 38.9 µM

## O=C1C=C(Nc2ccccc2C(=O)CC(=O)C(=O)Nc2ccc(Cl)c(Cl)c2)c2ccccc2C1=O
  EC50: > 26.9 µM
  IC50: > 26.9 µM

## O=C(O)CCCNS(=O)(=O)c1ccc2ccccc2c1
  outcome: inactive

## C[n+]1c(-c2ccc(/C=N/NC(=N)N/N=C/c3ccc(-c4cn5cc(Cl)ccc5[n+]4C)cc3)cc2)cn2cc(Cl)ccc21
  EC50: 6.46 µM
  IC50: 155 µM

## CC(C)(O)C1CCC2(C)CC(=O)NCCN12 (configuration not stated)
  EC50: > 398 µM
  IC50: > 398 µM

## Cc1ccc(SCC(OCn2cnc3c(N)ncnc32)[C@H](C)F)cc1 (some centres not stated)
  EC50: > 200 µM
  IC50: 191 µM

## CSc1ccc(Cc2cc(C(C)(C)C)cc(C(C)(C)C)c2O)cc1
  outcome: inactive

## Cc1cc(Cl)ccc1N=C1NC(=O)C(CC(=O)Nc2ccc(Cl)cc2Cl)S1 (configuration not stated)
  EC50: > 407 µM
  IC50: 224 µM

## c1ccc(C2=NCCc3cc4c(cc32)OCO4)cc1
  EC50: > 200 µM
  IC50: 141 µM

## CCN(CC)P1(=S)OCC(C)O1 (configuration not stated)
  EC50: > 324 µM
  IC50: 309 µM

## Cc1c(CCCl)c(N=P(c2ccccc2)(c2ccccc2)c2ccccc2)n2c(nc3ccccc32)c1C#N
  EC50: > 200 µM
  IC50: > 200 µM

## N#CCc1nc2ccccc2c(=O)[nH]1
  EC50: 17.8 µM
  IC50: 69.2 µM

## COC(=O)CC1C(=O)OC23CCC1C2(C)CCC1C3CCC2CC(OC(C)=O)CCC21C (configuration not stated)
  outcome: inactive

## CC1C(=O)N(c2ccccc2)NC12CCCc1ccccc12 (configuration not stated)
  EC50: > 200 µM
  IC50: 91.2 µM

## NCCCN(CCCCN(CCCN)Cc1ccc2ccccc2c1)Cc1ccc2ccccc2c1
  EC50: > 200 µM
  IC50: 1.07 µM

## CCOc1ccc(N)c(S)c1
  EC50: > 200 µM
  IC50: 26.9 µM

## Cn1cnc([N+](=O)[O-])c1S
  EC50: > 200 µM
  IC50: 67.6 µM

## CCOC(=O)/C(C#N)=N\Nc1ccc(-n2c(C)nc3ccc(Br)cc3c2=O)cc1
  EC50: > 182 µM
  IC50: 75.9 µM

## C=CCNC(=O)CN(CC(=O)OC)C1CCCCC1N(CC(=O)OC)CC(=O)OC (configuration not stated)
  EC50: > 200 µM
  IC50: > 200 µM

## CNc1ncnc2c1ncn2C1OC(CO)CC1F (configuration not stated)
  EC50: 158 µM
  IC50: > 200 µM

## NCCOB(c1ccccc1)c1ccccc1
  EC50: > 200 µM
  IC50: 38.9 µM

## CC(NNC(=S)N1CCCCCC1)c1cccnn1 (configuration not stated)
  EC50: > 200 µM
  IC50: 0.355 µM

## Nc1nc2ccc(CO)nc2c(=O)[nH]1
  EC50: > 200 µM
  IC50: > 200 µM

## COC(=O)C12C(=O)O[C@H](C)C1(O)C(C)C(=O)N2C (some centres not stated)
  outcome: inactive

## CCOC(=O)C1C(c2ccc3c(c2)OCO3)c2c([nH][nH]c2=O)CC1(O)OCC (configuration not stated)
  EC50: > 200 µM
  IC50: > 200 µM

## Cn1c2c(cc(-c3ccccc3)c1=O)COc1ccccc1-2
  EC50: > 89.1 µM
  IC50: 46.8 µM

## Cc1ccc(S(=O)(=O)N/N=C2/C3C(CC2(C)C)C2(C)CCCC3(C)C2O)cc1 (configuration not stated)
  EC50: > 200 µM
  IC50: > 200 µM

## O=C1CCCC2=C1CC1=C(CCCC1=O)N2c1ccc([N+](=O)[O-])cc1
  EC50: > 200 µM
  IC50: > 200 µM

## CN(C)CCSc1cccc(-c2cc(-c3cccs3)nc(SCCN(C)C)n2)c1
  EC50: > 282 µM
  IC50: 2.24 µM

## Cc1ccc(-c2cssc2=S)cc1
  EC50: > 200 µM
  IC50: > 200 µM

## CCCCC/C=C\CCC/C=C\CCCCCCOP(=O)(O)OCCC=C(c1cc(Cl)c(O)c(C(=O)O)c1)c1cc(Cl)c(O)c(C(=O)O)c1
  EC50: > 126 µM
  IC50: 83.2 µM

## O=C(NCCO)c1c(O)c2ccccc2[nH]c1=O
  EC50: > 200 µM
  IC50: > 200 µM

## CC(C)C(=Nc1ccc(Cl)c(Cl)c1)N(C)C
  EC50: > 200 µM
  IC50: > 100 µM

## O=CNc1ccc(S(=O)(=O)c2ccc(NC=O)cc2)cc1
  outcome: inactive

## Cc1cc(N(CCC#N)CCC#N)ccc1/C=C1N=C(/C=C\c2ccccc2)N(c2ccc(C(=O)O)cc2)C\1=O
  EC50: > 13.5 µM
  IC50: > 13.5 µM

## CCOC(=O)c1[nH]cnc1/N=N/N(C)N
  EC50: > 200 µM
  IC50: 21.4 µM

## Cc1ccc2c3ccc4c(c3n(C)c2c1)C(=O)C=CC4=O
  EC50: > 100 µM
  IC50: 1.82 µM

## CC(C)(C)OC(=O)NCCc1ccc(N)cc1
  EC50: > 200 µM
  IC50: 158 µM

## CCCCCC(C(O)C#N)C(O)(C(F)(F)F)C(F)(F)F (configuration not stated)
  EC50: > 200 µM
  IC50: 52.5 µM

## NC(=O)NC1C(C(=O)O)N(Cc2ccccc2)C(=O)N1Cc1ccccc1 (configuration not stated)
  EC50: > 490 µM
  IC50: > 490 µM

## C[n+]1c(-c2ccc(NC(=O)c3ccc(C(=O)Nc4ccc(-c5cn6ccccc6[n+]5C)cc4)cc3)cc2)cn2ccccc21
  EC50: > 2.63 µM
  IC50: 1.66 µM

## c1ccc(Nc2nnc(-c3ccccc3Nc3ccccc3-c3nnc(Nc4ccccc4)s3)s2)cc1
  EC50: > 200 µM
  IC50: 105 µM

## COc1cc(OC)c2nc3ccccc3c(NCCCN(C)C)c2c1[N+](=O)[O-]
  EC50: > 200 µM
  IC50: 20 µM

## Cc1cccc(/C=C(\C#N)C(=O)c2ccccc2)c1
  EC50: > 363 µM
  IC50: 178 µM

## CCCCCN(CCCCC)C(=O)COc1cc2c(O)c3c(O)c(C)c4c(c13)C(=O)C(C)(O/C=C/C(OC)C(C)C(OC(C)=O)C(C)C(O)C(C)C(O)C(C)/C=C/C=C(\C)C(=O)N2)O4 (configuration not stated)
  EC50: > 200 µM
  IC50: 7.76 µM

## Cc1c(-c2ccccc2)nn2cc(-c3ccccc3)nnc12
  EC50: > 200 µM
  IC50: 11 µM

## CN1S(=O)(=O)N(C)P12(N=P(CP(=NP13(N(C)S(=O)(=O)N1C)N(C)S(=O)(=O)N3C)(c1ccccc1)c1ccccc1)(c1ccccc1)c1ccccc1)N(C)S(=O)(=O)N2C
  EC50: > 70.8 µM
  IC50: > 70.8 µM
